{
  "source": "patent US5585364A",
  "about": "“Antiviral compounds” (British Technology Group Limited, priority 1989, dated 1996)",
  "key": {"HIV 3B": {"test_system": "HIV 3B", "assay": "Anti-HIV testing: protection of MT4 cells from virus induced cytopathic effect (MTT uptake)", "format": "cell-based, HIV-1", "conditions": "for Antiviral Activity: % Protection: MT4 cells, HIV 3B, 5 days, 37° C.", "experimental": "(§1) The sample, considered of adequate quality for antiviral testing is assayed as follows:\n(§2) The assays are carried out in 96 well (microtitre) panels using the MT4 cell line, infe3cted with IOTCID50 of HIV 3B. The antiviral activity and cytotoxicity of each compound is assayed simultaneously. Three compounds are screened on each panel. Each compound is tested at 100.0, 10.0, 1.0 and 0.1 μM, unless otherwise stated. AZT is included in each assay as a positive control at 10.0, 1.0, 0.1 and 0.01 μM.\n(§3) The antiviral activity (in infected cells) and cytotoxicity (to uninfected cells) of each compound is determined by measuring the number of viable cells remaining after 5 days incubation of 37° C. and comparing them with infected or uninfected controls. The number of viable cells is determined by the addition of the tetrazolium dye MTT. […] Following MTT addition, the cells are solubilised with acidified isopropanol and the extent of MTT conversion is measured spectrophotometrically.\nAntiviral activity is apparent through the ability of compounds to protect the cells from virus induced cytopathic effect. The result is reported as the percentage of cells protected at a given drug concentration."}, "[1]": {"assay": "Cytotoxicity to uninfected MT4 cells (MTT uptake)", "format": "cell-based", "conditions": "human", "experimental": "as §1, §2, §3"}},
  "note": "Where two headings read alike, the source gives them in different places.",
  "data": [
    {"molecule": "Cc1cn([C@H]2C[C@H](N=[N+]=[N-])[C@@H](COP(=O)(OC[C@H]3O[C@@H](n4cc(C)c(=O)[nH]c4=O)C[C@@H]3N=[N+]=[N-])Oc3ccc(S(C)(=O)=O)cc3)O2)c(=O)[nH]c1=O", "note": "[BTG 1704, 4-(methylsulphonyl)phenyl bis (3'-azido thymidin-5'-yl) phosphate]", "values": [
      {"measurement": "Antiviral Activity: % Protection", "setting": "HIV 3B; 0.001 μM", "value": 9, "unit": "%"},
      {"measurement": "Antiviral Activity: % Protection", "setting": "HIV 3B; 0.01 μM", "value": 21, "unit": "%"},
      {"measurement": "Antiviral Activity: % Protection", "setting": "HIV 3B; 0.1 μM", "value": 91, "unit": "%"},
      {"measurement": "Antiviral Activity: % Protection", "setting": "HIV 3B; 1.0 μM", "value": 91, "unit": "%"},
      {"measurement": "Antiviral Activity: % Protection", "setting": "HIV 3B; 10 μM", "value": 79, "unit": "%"},
      {"measurement": "Antiviral Activity: % Protection", "setting": "HIV 3B; 100 μM", "value": 13, "unit": "%"},
      {"measurement": "protection of MT4 cells from HIV-1 cytopathic effect", "setting": "HIV 3B; concentrations between 0.1 and 10 μM", "value": "significant protection"},
      {"measurement": "MCC at 120 h", "setting": "[1]; estimated, not a quantitative test for cytotoxicity, read-out: toxic concentration of the drug", "value": "~100", "unit": "µM"},
      {"measurement": "MCC at 120 h", "setting": "[1]; uninfected MT4 cells, 5 days, 37° C., read-out: MTC", "value": 100, "unit": "µM"}
    ]}
  ]
}
